In ChEMBL document CHEMBL1139805, “Marine natural products from the Turkish sponge Agelas oroides that inhibit the enoyl reductases from Plasmodium falciparum, Mycobacterium tuberculosis and Escherichia coli” (Bioorg Med Chem, 2007):
≈ marks a conversion by molar mass, not a printed value.

Key:
[1] = target: T1, Enoyl-acyl-carrier protein reductase (Plasmodium falciparum, UniProt Q965D5); assay: Inhibition of Plasmodium falciparum FabI
T1 sequence (Q965D5 whole entry): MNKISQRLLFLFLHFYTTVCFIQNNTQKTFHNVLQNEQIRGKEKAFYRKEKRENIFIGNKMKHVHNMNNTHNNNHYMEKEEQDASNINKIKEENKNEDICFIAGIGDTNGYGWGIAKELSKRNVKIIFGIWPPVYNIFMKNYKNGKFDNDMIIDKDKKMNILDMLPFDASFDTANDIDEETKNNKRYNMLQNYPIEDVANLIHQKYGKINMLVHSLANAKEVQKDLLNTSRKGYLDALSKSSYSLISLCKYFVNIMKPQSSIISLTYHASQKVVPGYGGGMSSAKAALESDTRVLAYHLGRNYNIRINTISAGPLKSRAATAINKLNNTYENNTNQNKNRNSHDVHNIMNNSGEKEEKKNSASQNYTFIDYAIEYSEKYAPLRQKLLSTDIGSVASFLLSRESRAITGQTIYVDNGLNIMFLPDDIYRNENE

[2] = system: Plasmodium falciparum; assay: Antimalarial activity against chloroquine-resistant, pyrimethamine-resistant Plasmodium falciparum K1 after 48 hrs; type: functional, organism-based; conditions: K1, 48 h
[3] = system: Trypanosoma brucei rhodesiense; assay: Antitrypanosomal activity against Trypanosoma brucei rhodesiense after 72 hrs by Alamar blue assay; type: functional, organism-based
[4] = system: Trypanosoma cruzi; assay: Antitrypanosomal activity against Trypanosoma cruzi after 72 hrs; type: functional, organism-based
[5] = system: Leishmania donovani; assay: Antileishmanial activity against Leishmania donovani after 72 hrs by Alamar blue assay; type: functional, organism-based
[6] = system: L6; assay: Cytotoxicity against rat L6 cells after 72 hrs; type: cell-based; conditions: L6, 72 h
[7] = target: T1, Enoyl-acyl-carrier protein reductase; assay: Inhibition of Plasmodium falciparum FabI in presence of variable crotonyl-coA level
[8] = target: T1, Enoyl-acyl-carrier protein reductase; assay: Inhibition of Plasmodium falciparum FabI in presence of variable NADH levels

Nc1ncc(/C=C/CNC(=O)c2cc(Br)c(Br)[nH]2)[nH]1 [OROIDIN]
IC50 [1]: 0.771 µM | IC50 [2]: 3.9 µg/mL (≈ 10 µM) | IC50 [3]: 17.3 µg/mL (≈ 44.5 µM) | IC50 [4]: > 30 µg/mL | IC50 [5]: > 30 µg/mL | IC50 [6]: 88.6 µg/mL (≈ 228 µM) | Ki [7]: 0.4 µM | Ki [8]: 0.8 µM

CC[C@@H](CC[C@@H](C)[C@H]1CC[C@H]2C3=CC[C@H]4C[C@@H](O)CC[C@]4(C)[C@H]3CC[C@]12C)C(C)C
IC50 [1]: 43.4 µM | IC50 [2]: 16.1 µg/mL (≈ 38.8 µM) | IC50 [3]: 14.2 µg/mL (≈ 34.2 µM) | IC50 [4]: > 30 µg/mL | IC50 [5]: 29.5 µg/mL (≈ 71.1 µM) | IC50 [6]: > 90 µg/mL

O=C(O)C(F)(F)F.O=C(O)c1cc(Br)c(Br)[nH]1
IC50 [1]: 104 µM | IC50 [2]: 49.9 µg/mL | IC50 [3]: 25.2 µg/mL | IC50 [4]: > 30 µg/mL | IC50 [5]: 5.8 µg/mL | IC50 [6]: > 90 µg/mL

COC(=O)c1cc(Br)c(Br)[nH]1
IC50 [1]: > 353 µM | IC50 [2]: > 50 µg/mL | IC50 [3]: 13.3 µg/mL (≈ 47 µM) | IC50 [4]: > 30 µg/mL | IC50 [5]: > 30 µg/mL | IC50 [6]: > 90 µg/mL

O=C(Cn1ccnc1[N+](=O)[O-])NCc1ccccc1 [BENZNIDAZOLE]
IC50 [4]: 0.17 µg/mL (≈ 0.653 µM)

Oc1cc(Cl)ccc1Oc1ccc(Cl)cc1Cl [TRICLOSAN]
IC50 [1]: 0.0484 µM

NCCS(=O)(=O)O [TAURINE]
IC50 [1]: > 799 µM | IC50 [2]: > 50 µg/mL | IC50 [3]: 83.4 µg/mL (≈ 666 µM) | IC50 [4]: > 30 µg/mL | IC50 [5]: > 30 µg/mL | IC50 [6]: > 90 µg/mL

NC/C=C/c1cnc(N)[nH]1
IC50 [1]: > 724 µM | IC50 [2]: 7.4 µg/mL (≈ 53.6 µM) | IC50 [3]: 2.4 µg/mL (≈ 17.4 µM) | IC50 [4]: 2.5 µg/mL (≈ 18.1 µM) | IC50 [5]: 13.1 µg/mL (≈ 94.8 µM) | IC50 [6]: 0.7 µg/mL (≈ 5.07 µM)

Nc1nc(N)nc(Nc2ccc([As]3SCC(CO)S3)cc2)n1 (centres undefined) [MELARSOPROL]
IC50 [3]: 0.0027 µg/mL

O=C(O)c1cc(Br)c(Br)[nH]1
IC50 [1]: > 372 µM | IC50 [2]: > 50 µg/mL | IC50 [3]: 20.9 µg/mL (≈ 77.7 µM) | IC50 [4]: > 30 µg/mL | IC50 [5]: 7.9 µg/mL (≈ 29.4 µM) | IC50 [6]: > 90 µg/mL

COc1cc([C@@H]2c3cc4c(cc3[C@H](O)[C@H]3COC(=O)[C@H]23)OCO4)cc(OC)c1OC [PODOFILOX]
IC50 [6]: 0.009 µg/mL (≈ 0.0217 µM)

Nc1ncc(/C=C/CNC(=O)c2cc(Br)c(Br)[nH]2)[nH]1.O=C(O)C(F)(F)F [OROIDIN TFA SALT]
IC50 [1]: 9.94 µM | IC50 [2]: 7.9 µg/mL | IC50 [3]: 12.2 µg/mL | IC50 [4]: > 30 µg/mL | IC50 [5]: 15.4 µg/mL | IC50 [6]: 76.4 µg/mL
